Patent US12240853B2, “Compounds useful in HIV therapy” (GlaxoSmithKline Intellectual Property (No.2) Limited, priority 2019, dated 2025)

Experiments:
[1] = Example 18 dog PK studies (SC and IM); assay type: in vivo, beagle dogs; conditions: beagle dog, single SC or IM injection, 5 mg parent/kg
Text: Example 18 referenced herein was made in accordance with Synthesis B. Six male beagle dogs (+1 spare) were selected from the Testing Facility's colony of non-naïve animals. The animals were assigned to the study based on acceptable health as determined by a Testing Facility veterinarian. Six animals were selected and placed into two groups of three animals each. Fasting of the animals before or after dosing was not required.
On Day 1 each animal in Group 1 received a single intrascapular subcutaneous injection of prepared test article at a target dose level of 5 mg parent/kg in 2% P404/2% PEG3350/PBS (dose concentration 97.36 mg/mL prodrug) and at a dose volume of 0.1 mL/kg. Each animal in Group 2 received a single intramuscular injection of prepared test article in a hind quarter (quadriceps) at a target dose level of 5 mg parent/kg in 2% P404/2% PEG3350/PBS (dose concentration 97.36 mg/mL prodrug) and at a dose volume of 0.1 mL/kg. The animals were manually restrained for dosing and were not sedated. The dose sites were clipped of hair and wiped with alcohol before dosing. […]
The PK plasma samples were analyzed approximately every two weeks by the Testing Facility to determine the concentration of Example 18 (prodrug) and parent using an LC-MS/MS Research Grade Assay (RGA-1) with sensitivity to 0.1 ng/mL. […]

[2] = system: HIV pseudotyped virus (NL4-3 provirus, luciferase reporter), WT; experiment: PSV (pseudotyped virus) assay, WT; conditions: Human immunodeficiency virus 1, NL43, 72 h, read-out: WT IC50
Method: A pseudotyped virus assay (PSV) was used to assess the potency of the HIV inhibitor.
The PSV assay was performed by using U373 cells stably transformed to express human CD4, the primary receptor for HIV entry and either human CXCR4 or human CCR5 which are the co-receptors required for HIV entry as target cells for infection. […] This dose-range was applied to U373 cells and the pre-made pseudotyped virus added. The amount of luciferase signal produced after 3 days of culture was used to reflect the level of pseudotyped virus infection. An IC50, or the concentration of inhibitor required to reduce PSV infection by 50% from the infection containing no inhibitor was calculated. […] IC50 values were determined from a 10 point dose response curve using 3-4-fold serial dilution for each compound, which spans a concentration range>1000 fold.
These values are plotted against the molar compound concentrations using the standard four parameter logistic equation: y=((Vmax*x^n)/(K^n+x^n))+Y2

SMILES: C#C[C@]1(COC(=O)CCCCCCCCC)O[C@@H](n2cnc3c(N)nc(F)nc32)C[C@@H]1OC(=O)CCCCCCCCC [Example 18, (2R,3S,5R)-5-(6-amino-2-fluoro-9H-purin-9-yl)-2-((decanoyloxy)methyl)-2-ethynyltetrahydrofuran-3-yl Decanoate]
- Clinical observations and dose site reactions [1]: All animals appeared normal at the time of each observation and no dose site reactions were observed
- IC50 [2]: 10 nM
